Our source for the T/C values is PubChem BioAssay AID256 (DTP/NCI, 2004).

The test system of this test is CD2F1 mice, L1210 leukemia ip, survival T/C. Description: NCI In Vivo Anticancer Drug Screen. Data for tumor model L1210 Leukemia (intraperitoneal) in CD2F1 (CDF1) mice. Particulars: higher = longer survival. Put shortly:
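Mice carrying a transplanted tumor received test compound or vehicle alone. The value is the measurement in the treated group divided by that in the vehicle-treated control group.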

Where [1] appears, read: endpoint: mean survival time, dose: 100.0 mg/kg/injection, schedule: Q01DX009 (ip), vehicle: saline with Tween-80.
The mark [2] stands for this setting: endpoint: mean survival time, dose: 100.0 mg/kg/injection, schedule: Q04DX003 (ip), vehicle: saline with Tween-80.
The mark [3] stands for this setting: endpoint: mean survival time, dose: 200.0 mg/kg/injection, schedule: Q01DX009 (ip), vehicle: saline with Tween-80.
Setting [4] is: endpoint: mean survival time, dose: 200.0 mg/kg/injection, schedule: Q04DX003 (ip), vehicle: saline with Tween-80.
[5] abbreviates: endpoint: mean survival time, dose: 400.0 mg/kg/injection, schedule: Q04DX003 (ip), vehicle: saline with Tween-80.
Where [6] appears, read: endpoint: mean survival time, dose: 400.0 mg/kg/injection, schedule: Q01DX009 (ip), vehicle: saline with Tween-80.
Setting [7] is: endpoint: mean survival time, dose: 50.0 mg/kg/injection, schedule: Q04DX003 (ip), vehicle: saline with Tween-80.

Several values for one entry are separate records, joined by “and”; a condition that tells them apart may be missing. Equal values may be shown once. Inconclusive results and toxic doses are left out.

For `Nc1cc2c(nnn2C(c2ccccc2)c2ccccc2)c(N)n1`, the T/C was 98 % of control (endpoint: mean survival time, dose: 100.0 mg/kg/injection, schedule: Q01DX001 (ip), vehicle: carboxymethylcellulose (CMC)); 92 % of control (endpoint: mean survival time, dose: 200.0 mg/kg/injection, schedule: Q01DX001 (ip), vehicle: carboxymethylcellulose (CMC)); 95 % of control (endpoint: mean survival time, dose: 400.0 mg/kg/injection, schedule: Q01DX001 (ip), vehicle: carboxymethylcellulose (CMC)).

Consider `C[N+](C)(CCCCCCCCCC[N+](C)(C)CC(=O)c1ccccc1)CC(=O)c1ccccc1`, for which the T/C (endpoint: mean survival time, dose: 0.5 mg/kg/injection, schedule: Q04DX003 (ip), vehicle: saline) was 101 % of control; the T/C (endpoint: mean survival time, dose: 1.0 mg/kg/injection, schedule: Q04DX003 (ip), vehicle: saline) was 94 % of control; the T/C (endpoint: mean survival time, dose: 2.0 mg/kg/injection, schedule: Q04DX003 (ip), vehicle: saline) was 95 % of control.

Turning to `O=[N+]([O-])c1ccc(Sc2ccc(Cl)cc2)cc1`, the T/C is, setting by setting: (endpoint: mean survival time, dose: 100.0 mg/kg/injection, schedule: Q01DX001 (ip), vehicle: other) 95 % of control; under setting [1], 98 % of control; under setting [2], 104 % of control; (endpoint: mean survival time, dose: 200.0 mg/kg/injection, schedule: Q01DX001 (ip), vehicle: other) 102 % of control; under setting [3], 98 % of control; under setting [4], 95 % of control. Besides, the T/C is, setting by setting: (endpoint: mean survival time, dose: 400.0 mg/kg/injection, schedule: Q01DX001 (ip), vehicle: other) 107 % of control; under setting [5], 103 % of control.

Consider `COc1ccc(CCc2nc(CCCCO)[nH]c2C)cc1OC`, for which the T/C under setting [1] is 92 % of control.

As to `C=C1C(=O)OCC2(CC)CCCCC12` (configuration not stated), the T/C reads like this: (endpoint: mean survival time, dose: 5.0 mg/kg/injection, schedule: Q01DX009 (ip), vehicle: water) 94 % of control; (endpoint: mean survival time, dose: 10.0 mg/kg/injection, schedule: Q01DX009 (ip), vehicle: water) 88 % of control; (endpoint: mean survival time, dose: 20.0 mg/kg/injection, schedule: Q01DX009 (ip), vehicle: water) 96 % of control.

On to `Cn1c2nc3ccccc3c-2nc2ccccc21`, for which the T/C by setting is: (endpoint: mean survival time, dose: 1.56 mg/kg/injection, schedule: Q01DX009 (ip), vehicle: water) 100 % of control; (endpoint: mean survival time, dose: 3.13 mg/kg/injection, schedule: Q01DX009 (ip), vehicle: water) 93 % of control; (endpoint: mean survival time, dose: 6.25 mg/kg/injection, schedule: Q01DX009 (ip), vehicle: water) 88 % of control; (endpoint: mean survival time, dose: 12.5 mg/kg/injection, schedule: Q01DX009 (ip), vehicle: water) 89 % of control; (endpoint: mean survival time, dose: 25.0 mg/kg/injection, schedule: Q01DX009 (ip), vehicle: Klucel (hydroxypropylcellulose) (HPC)) 101 % of control; (endpoint: mean survival time, dose: 25.0 mg/kg/injection, schedule: Q01DX009 (ip), vehicle: water) 86 % of control and 89 % of control. Also, the T/C (endpoint: mean survival time, dose: 50.0 mg/kg/injection, schedule: Q01DX009 (ip), vehicle: Klucel (hydroxypropylcellulose) (HPC)) is 103 % of control; the T/C (endpoint: mean survival time, dose: 100.0 mg/kg/injection, schedule: Q01DX009 (ip), vehicle: Klucel (hydroxypropylcellulose) (HPC)) is 105 % of control; the T/C (endpoint: mean survival time, dose: 200.0 mg/kg/injection, schedule: Q01DX009 (ip), vehicle: Klucel (hydroxypropylcellulose) (HPC)) is 95 % of control.

On to `O=C(CCC(O)(C(=O)c1ccccc1)c1ccccc1)c1ccccc1` (configuration not stated), for which the T/C is, setting by setting: under setting [2], 91 % of control; under setting [4], 94 % of control; under setting [5], 88 % of control.

As for `C[CH2][Sn]1([CH2]C)[O]C2C(CO)OC(n3ccc(N)nc3=O)C2[O]1` (configuration not stated), the T/C (endpoint: mean survival time, dose: 1.56 mg/kg/injection, schedule: Q01DX005 (ip), vehicle: water) was 97 % of control; the T/C (endpoint: mean survival time, dose: 3.13 mg/kg/injection, schedule: Q01DX005 (ip), vehicle: water) is 111 % of control; the T/C (endpoint: mean survival time, dose: 6.25 mg/kg/injection, schedule: Q01DX005 (ip), vehicle: water) was 100 % of control; the T/C (endpoint: mean survival time, dose: 12.5 mg/kg/injection, schedule: Q01DX005 (ip), vehicle: other) was 103 % of control; the T/C (endpoint: mean survival time, dose: 12.5 mg/kg/injection, schedule: Q01DX005 (ip), vehicle: water) was 105 % of control.

`CCCCCCCC(=O)Nc1ccccc1F`: the T/C was 103 % of control (endpoint: mean survival time, dose: 100.0 mg/kg/injection, schedule: Q04DX003 (ip), vehicle: saline); 103 % of control (endpoint: mean survival time, dose: 200.0 mg/kg/injection, schedule: Q04DX003 (ip), vehicle: saline); 95 % of control (endpoint: mean survival time, dose: 400.0 mg/kg/injection, schedule: Q04DX003 (ip), vehicle: saline).

For the molecule `CCN(CC)c1ccc2c(-c3ccccc3C(=O)O)c3ccc(=[N+](CC)CC)cc-3oc2c1`, the T/C by setting is: (endpoint: mean survival time, dose: 5.0 mg/kg/injection, schedule: Q04DX003 (ip), vehicle: saline with Tween-80) 105 % of control; (endpoint: mean survival time, dose: 10.0 mg/kg/injection, schedule: Q04DX003 (ip), vehicle: saline with Tween-80) 105 % of control; (endpoint: mean survival time, dose: 20.0 mg/kg/injection, schedule: Q04DX003 (ip), vehicle: saline with Tween-80) 102 % of control; under setting [1], 101 % of control; under setting [3], 103 % of control; under setting [6], 100 % of control.

In the case of `NC(=S)N/N=C/c1c(O)ccc2ccccc12`, the T/C was 98 % of control (endpoint: mean survival time, dose: 12.5 mg/kg/injection, schedule: Q04DX003 (ip), vehicle: saline with Tween-80); 95 % of control (endpoint: mean survival time, dose: 25.0 mg/kg/injection, schedule: Q04DX003 (ip), vehicle: saline with Tween-80); 95 % of control under setting [7].

Turning to `CN=NN(C)C(=O)NC`, the T/C was 110 % of control (endpoint: median survival time, dose: 6.25 mg/kg/injection, schedule: Q01DX005 (ip), vehicle: saline); 120 % of control (endpoint: median survival time, dose: 12.5 mg/kg/injection, schedule: Q01DX005 (ip), vehicle: saline); 186 % of control (endpoint: median survival time, dose: 60.0 mg/kg/injection, schedule: Q01DX005 (ip), vehicle: saline); 204 % of control (endpoint: median survival time, dose: 100.0 mg/kg/injection, schedule: Q01DX005 (ip), vehicle: saline).

`N#CCCC1(CCC#N)c2ccccc2-c2ccccc21`: the T/C is 95 % of control under setting [2], 100 % of control under setting [4] and 105 % of control under setting [5].

As for `CCN(CC)c1ccc(N=Nc2cc(Cl)ccc2Cl)c(NC(=O)CSC(C)=O)c1`, the T/C (endpoint: mean survival time, dose: 100.0 mg/kg/injection, schedule: Q04DX003 (ip), vehicle: other) is 94 % of control; the T/C (endpoint: mean survival time, dose: 200.0 mg/kg/injection, schedule: Q04DX003 (ip), vehicle: other) is 100 % of control; the T/C (endpoint: mean survival time, dose: 400.0 mg/kg/injection, schedule: Q04DX003 (ip), vehicle: other) was 97 % of control.

As to `O=S(=O)(c1ccc(Cl)cc1)N(Cl)Cl`, the T/C by setting is: (endpoint: mean survival time, dose: 100.0 mg/kg/injection, schedule: Q01DX001 (ip), vehicle: saline with Tween-80) 103 % of control; (endpoint: mean survival time, dose: 200.0 mg/kg/injection, schedule: Q01DX001 (ip), vehicle: saline with Tween-80) 101 % of control.

As for `c1ccc2c(c1)C(=NN=C1c3ccccc3-c3ccccc31)c1ccccc1-2`, the T/C runs as follows: under setting [1], 94 % of control; under setting [2], 94 % of control; under setting [3], 92 % of control; under setting [4], 88 % of control; under setting [6], 94 % of control; under setting [5], 88 % of control.

`CC(C)C1(NC(=O)C2C=C3c4cccc5[nH]cc(c45)CC3N(C)C2)OC2(O)C3CCCN3C(=O)C(Cc3ccccc3)N2C1=O` (configuration not stated): the T/C is, setting by setting: under setting [7], 96 % of control; under setting [2], 105 % of control; under setting [4], 100 % of control.

On to `CCCC(CCC)=NCCN=C(CCC)CCC`, for which the T/C is, setting by setting: (endpoint: mean survival time, dose: 100.0 mg/kg/injection, schedule: Q04DX003 (ip), vehicle: saline sonified) 97 % of control; (endpoint: mean survival time, dose: 200.0 mg/kg/injection, schedule: Q04DX003 (ip), vehicle: saline sonified) 97 % of control; (endpoint: mean survival time, dose: 400.0 mg/kg/injection, schedule: Q04DX003 (ip), vehicle: saline sonified) 97 % of control.

For `CCOC(=O)NP(=O)(N1CC1(C)C)N1CC1(C)C` (configuration not stated), the T/C was 170 % of control (endpoint: mean survival time, dose: 45.0 mg/kg/injection, schedule: Q01DX009 (ip), vehicle: saline); 232 % of control (endpoint: mean survival time, dose: 90.0 mg/kg/injection, schedule: Q01DX009 (ip), vehicle: saline); 261 % of control (endpoint: mean survival time, dose: 180.0 mg/kg/injection, schedule: Q01DX009 (ip), vehicle: saline).

On to `CC(C)(C)c1ccc(O)cc1`, for which the T/C was 94 % of control under setting [2], 95 % of control under setting [4] and 88 % of control under setting [5].

Consider `CCOC(=O)C1C(=O)NC(=O)N1Cc1ccccc1` (configuration not stated), for which the T/C (endpoint: mean survival time, dose: 12.5 mg/kg/injection, schedule: Q01DX009 (ip), vehicle: other) is 100 % of control; the T/C (endpoint: mean survival time, dose: 25.0 mg/kg/injection, schedule: Q01DX009 (ip), vehicle: other) is 104 % of control; the T/C (endpoint: mean survival time, dose: 50.0 mg/kg/injection, schedule: Q01DX009 (ip), vehicle: other) is 100 % of control; the T/C (endpoint: mean survival time, dose: 100.0 mg/kg/injection, schedule: Q01DX009 (ip), vehicle: other) is 97 % of control; the T/C (endpoint: mean survival time, dose: 200.0 mg/kg/injection, schedule: Q01DX009 (ip), vehicle: other) was 100 % of control.
